Assay results taken from publication PMC3353862.
Values after ≈ are worked out from the molar mass of the structure shown. Read-outs that look alike come from different tables or passages of the source.

Key:
[1] = tested on: E. coli modified with PMBN; conditions: cited from earlier work
E. coli tolC mutants [2] = conditions: cited from earlier work
H. influenzae [3] = conditions: Haemophilus influenzae; cited from earlier work
[4] = tested on: bacterial protein synthesis (aminoacylation/translation system); experiment: aminoacylation/translation (A/T) assay; type: biochemical
E. faecalis [5] = conditions: cited from earlier work
M. catarrhalis [6] = conditions: Moraxella. catarrhalis; cited from earlier work
S. pneumoniae [7] = conditions: cited from earlier work
S. aureus [8] = conditions: cited from earlier work
E. coli tolC mutants [9] = experiment: Broth microdilution MIC testing; type: cell-based, Escherichia coli; conditions: for MIC E. coli tolC: E. coli tolC mutants; for MIC: Escherichia coli, read-out: MIC E. coli tolC
S. pneumoniae [10] = experiment: Broth microdilution MIC testing; type: cell-based, Streptococcus pneumoniae; conditions: for MIC S. pneumo: S. pneumoniae; for MIC: Streptococcus pneumoniae, read-out: MIC S. pneumo
S. aureus [11] = experiment: Broth microdilution MIC testing; type: cell-based, Staphylococcus aureus; conditions: for MIC: Staphylococcus aureus, read-out: MIC S. aureus
M. catarrhalis [12] = experiment: Broth microdilution MIC testing; type: cell-based, Moraxella catarrhalis; conditions: for MIC: Moraxella catarrhalis
[13] = tested on: E. coli modified with PMBN; experiment: Broth microdilution MIC testing; type: cell-based, Escherichia coli; conditions: for MIC E. coli +PMBP: E. coli modified with PMBN; for MIC: Escherichia coli, read-out: MIC E. coli +PMBP
H. influenzae [14] = experiment: Broth microdilution MIC testing; type: cell-based, Haemophilus influenzae; conditions: for MIC H. flu: H. influenzae; for MIC: Haemophilus influenzae, read-out: MIC H. flu
panel of bacteria = experiment: Antibacterial activity against the panel of bacteria (MIC, overall); type: cell-based; on MIC (antibacterial activity grade): key: +: poor; ++: moderate; +++: good antibacterial activity
E. faecalis [15] = experiment: Broth microdilution MIC testing; type: cell-based, Enterococcus faecalis; conditions: for MIC E. fae: E. faecalis; for MIC: Enterococcus faecalis, read-out: MIC E. fae
[16] = original hits retested, read-out: IC50 (retested in the A/T assay)
[17] = A/T assay, Table 1, read-out: IC50

| Structure (SMILES) | MIC E. coli tolC (E. coli tolC mutants [9]) | MIC S. pneumo (S. pneumoniae [10]) | MIC S. aureus (S. aureus [11]) | MIC M. cat (M. catarrhalis [12]) | MIC E. coli +PMBP [13] | IC50 [4, 17] | MIC H. flu (H. influenzae [14]) | MIC (antibacterial activity grade) (panel of bacteria; Table 3) | MIC E. fae (E. faecalis [15]) | MIC (E. coli tolC mutants [9]) | MIC (S. pneumoniae [10]) | MIC (S. aureus [11]) | MIC (M. catarrhalis [12]) | MIC [13] | MIC (H. influenzae [14]) | MIC (E. faecalis [15]) | further results |
| --- | --- | --- | --- | --- | --- | --- | --- | --- | --- | --- | --- | --- | --- | --- | --- | --- | --- |
| Oc1nc(-c2ccccn2)nc2c1CN(Cc1cccc(F)c1)CC2 [Compound 321525] | – | – | – | – | – | – | – | – | – | – | – | – | – | – | – | – | MIC [1]: 32 µg/mL (≈ 95.1 µM); MIC (E. coli tolC mutants [2]): 8 µg/mL (≈ 23.8 µM); MIC (H. influenzae [3]): 4 µg/mL (≈ 11.9 µM); IC50 [4, 16]: 2800 nM; MIC (E. faecalis [5]): 32 µg/mL (≈ 95.1 µM); MIC (M. catarrhalis [6]): 0.25 µg/mL (≈ 0.743 µM); MIC (S. pneumoniae [7]): 8 µg/mL (≈ 23.8 µM); MIC (S. aureus [8]): 32 µg/mL (≈ 95.1 µM) |
| COc1cccc(CN2CCc3nc(-c4ccccn4)nc(O)c3C2)c1 [Compound 321528] | – | – | – | – | – | – | – | – | – | – | – | – | – | – | – | – | MIC [1]: 32 µg/mL (≈ 91.8 µM); MIC (E. coli tolC mutants [2]): 128 µg/mL (≈ 367 µM); MIC (H. influenzae [3]): 8 µg/mL (≈ 23 µM); IC50 [4, 16]: 1200 nM; MIC (E. faecalis [5]): 128 µg/mL (≈ 367 µM); MIC (M. catarrhalis [6]): 2 µg/mL (≈ 5.74 µM); MIC (S. pneumoniae [7]): 32 µg/mL (≈ 91.8 µM); MIC (S. aureus [8]): > 128 µg/mL |
| CC(C)Oc1ccc(CN2CCc3nc(-c4ccccn4)[nH]c(=O)c3C2)cc1 [Compound 323365] | 4 µg/mL (≈ 10.6 µM) | 4 µg/mL (≈ 10.6 µM) | 8 µg/mL (≈ 21.3 µM) | ≤0.12 µg/mL | 4 µg/mL (≈ 10.6 µM) | 2270 nM | 4 µg/mL (≈ 10.6 µM) | +++ | 16 µg/mL (≈ 42.5 µM) | – | – | – | – | – | – | – | – |
| CC(C)(C)Oc1ccc(CN2CCc3nc(-c4ccccn4)[nH]c(=O)c3C2)cc1 [Compound 323366] | 4 µg/mL (≈ 10.2 µM) | 2 µg/mL (≈ 5.12 µM) | 8 µg/mL (≈ 20.5 µM) | ≤0.12 µg/mL | 2 µg/mL (≈ 5.12 µM) | 2470 nM | 4 µg/mL (≈ 10.2 µM) | +++ | 8 µg/mL (≈ 20.5 µM) | – | – | – | – | – | – | – | – |
| O=c1[nH]c(-c2ccccn2)nc2c1CN(Cc1cccc(Br)c1Br)CC2 [Compound 323367] | 2 µg/mL (≈ 4.2 µM) | 2 µg/mL (≈ 4.2 µM) | 8 µg/mL (≈ 16.8 µM) | ≤0.12 µg/mL | 8 µg/mL (≈ 16.8 µM) | 1890 nM | 1 µg/mL (≈ 2.1 µM) | +++ | 4 µg/mL (≈ 8.4 µM) | – | – | – | – | – | – | – | – |
| O=C(Nc1ccc(Cl)cc1)N1CCc2nc(-c3ccccn3)[nH]c(=O)c2C1 [Compound 323368] | – | – | – | – | – | 470 nM | – | – | – | > 128 µg/mL | > 128 µg/mL | > 128 µg/mL | > 128 µg/mL | > 128 µg/mL | > 128 µg/mL | > 128 µg/mL | antibacterial activity (panel of bacteria; panel of bacteria): complete loss of antibacterial activity |
| O=c1[nH]c(-c2ccccn2)nc2c1CN(CCc1ccc(Cl)cc1)CC2 [Compound 323370] | – | – | – | – | – | 280 nM | – | – | – | 8 µg/mL (≈ 21.8 µM) | 4 µg/mL (≈ 10.9 µM) | 16 µg/mL (≈ 43.6 µM) | ≤ 0.12 µg/mL | 8 µg/mL (≈ 21.8 µM) | 2 µg/mL (≈ 5.45 µM) | 16 µg/mL (≈ 43.6 µM) | MIC (antibacterial activity grade) (panel of bacteria; Table 2): +++ |
| CC1CN(Cc2ccc(Cl)cc2)Cc2c1nc(-c1ccccn1)[nH]c2=O (stereo not shown) [Compound 332054] | – | – | – | – | – | 7400 nM | – | +++ | – | 2 µg/mL (≈ 5.45 µM) | 2 µg/mL (≈ 5.45 µM) | 4 µg/mL (≈ 10.9 µM) | ≤ 0.12 µg/mL | 1 µg/mL (≈ 2.73 µM) | 1 µg/mL (≈ 2.73 µM) | 8 µg/mL (≈ 21.8 µM) | – |
| O=c1[nH]c(-c2ccccn2)nc2c1CCN(Cc1ccc(Cl)cc1)CC2 [Compound 332058] | – | – | – | – | – | 560 nM | – | – | – | 4 µg/mL (≈ 10.9 µM) | 2 µg/mL (≈ 5.45 µM) | 16 µg/mL (≈ 43.6 µM) | ≤ 0.12 µg/mL | 4 µg/mL (≈ 10.9 µM) | 0.5 µg/mL (≈ 1.36 µM) | 16 µg/mL (≈ 43.6 µM) | MIC (antibacterial activity grade) (panel of bacteria; Table 2): +++ |
